Data set [1] concerns HeLa cells. Briefly: DNA fragmentation (apoptosis) in HeLa cells. It is filed as cell-based. To be noted: stimulation by TNFα alone, FIG. 1A. Here is the method: (§1) Cell culture: HeLa cells were cultured in Dulbecco's modified Eagle's medium supplemented with 10% fetal bovine serum and 50 μg/ml kanamycin at 37° C. in 5% CO2 in air.
(§2) Assay for apoptotic processes: Cell viability was determined by dye exclusion assay using 0.1% trypan blue. DNA fragmentation was analyzed as described previously (Kawauchi, K. et al. (1997) Biochem. Biophys. Res. Commun. 237, 543-547). In the caspase-3 assay, cells were disrupted by freeze-thaw in an extraction buffer (50 mM Tris-HCl, pH7.4, 1 mM EGTA, 5 mM EDTA, 5 mM MgCl2, 1 mM APMSF, 10 μg/ml pepstatin, 10 μg/ml leupeptin, and 1 mM DTT). Then the suspension was centrifuged at 15,000 rpm for 20 min, and the supernatants obtained were incubated at 37° C. for 60 min in a reaction buffer (50 mM Tris-HCl, pH7.4, 1 mM EDTA, 10 mM EGTA) with 20 μM of the fluorogenic substrate DEVD-AFC (Peptide Institute, Inc., Japan). Cleavage of the substrates was quantified by measuring the fluorescence of 7-amino-4-trifluomethyl coumarin released using a spectrofluorometer (Shimadzu RF5000) with excitation at 380 mn and emission at 460 nm.
HeLa cells were treated with TNFα and cPrG.HCl and the effect of cPrG.HCl on apoptosis was examined by measuring DNA fragmentation and survivability.

Data set [2] has as its system HeLa cells. Briefly: Cell viability by trypan blue dye exclusion assay. In kind it is cell-based. To be noted: stimulation by TNFα alone, FIG. 1A. The protocol: as §1, §2
For data set [3] the following is noted: Oka et al. (2000) FEBS Lett.; cited from earlier work.
A further data set relates to female ICR mice. Briefly: Toxicity on intraperitoneal administration to mice. To be noted: 5 weeks old, 25 to 29 g. It is filed as in vivo.
For data set [4] the following is noted: as compared to FCCP.
The next data set deals with NF-κB. Briefly: NF-κB luciferase gene reporter assay (pIG3Luc) in HeLa cells. It is filed as cell-based. The conditions noted are these: HeLa cells, FIG. 2A, 2C. An excerpt: The plasmids, pRKF-IKKα and pRKHA-IKKβ have been described previously (Oka, S., Kamata, H., Kamata, K., Yagisawa, H. and Hirata, H. (2000) FEBS Lett., 472, 196-202). pRKF-IKKαEE and pRK-HA-IKKβEE encode constitutively active mutants of IKKα, in which 176 and 180 serine residues in an activation loop are replaced by glutamic acid residues, and IKKβ, in, which 177 and 181 serine residues are replaced by glutamic acid residues, respectively. A reporter plasmid pIG3Luc for NF-κB encodes triple NF-κB binding site sequences (AGCTTCAGAGGGGACTRANSCRIPTIONCCGAGAGG) (SEQ ID NO: 2) followed by the luciferase gene. A control plasmid, pBKRLuc, was obtained from Toyobo (Toyo B-Net Co., Japan). pcDNAF-MEKK1, pRKF-p65, pEFBOSHA-Rac1-DA, and pEFBOSHA-Cdc42-DA, are the expression plasmids for MEKK1, the NF-κB subunit p65, constitutively active Rac1 and Cdc42, respectively.
Luciferase gene reporter assay and Kinase assays of IKK: HeLa cells were transfected with the reporter plasmids described above using Lipofectin (GIBCO BRL). After 24-48 hr, the luciferase activity was determined using the Luciferase Assay System (Promega). The kinase activity of IKKα and IKKβ were analyzed by immune complex kinase assay as described previously (Oka, S., Kamata, H., Kamata, K., Yagisawa, H. and Hirata, H. (2000) FEBS Lett. 472, 196-202). The substrates was using GST-IκBα(1-55) or GST-p65(399-551).
The gene expression induction by NF-κB activation plays the most important role among “life” signals by TNFα. Therefore, the NF-κB reporter gene was introduced into the cells to analyze the effect of cPrG-HCl by luciferase assay.
NF-κB is translocated into the nucleus also by activation with low-molecular-weight G proteins Rac1 and Cdc42 or MEKK1 and induces gene expression. An activated Rac1, Cdc42 or MEKK1 expression plasmid was introduced together with the NF-κB reporter gene into cells and the effect of cPrG-HCl on NF-κB activation was measured by luciferase assay (FIG. 4A and FIG. 4B).
(A reporter such as luciferase makes a cellular process visible.)

In the case of TNFα, in the data set on HeLa cells [1], the DNA fragmentation entry was “hardly observed”. Further, the “decrease in cell viability” value in the data set on HeLa cells [2] is “hardly observed”.

Regarding `CC(=O)N[C@@H](CS)C(=O)O` [N-acetylcysteine], the effect on apoptosis entry in data set [3] is recorded as “inhibits”.

On to `COC1=CC(c2ccc[nH]2)=N/C1=C\c1[nH]c(C)c2c1C(C)CCC2` (stereo not drawn) [cPrG, Cycloprodigiosin], for which, in the data set on female ICR mice, the LD50 result is recorded as “greater than 10 mg”. The ionophore activity result in data set [4] is given as “no ionophore activity”.

Regarding `CO/C1=C\C(C)=C\[C@@H](C)[C@@H](O)[C@@H](C)C/C(C)=C/C=C/[C@H](OC)[C@@H]([C@@H](C)[C@@H](O)[C@H](C)[C@@]2(O)C[C@@H](O)[C@H](C)[C@@H](C(C)C)O2)OC1=O` [bafilomycin, reference compound], the “TNFα-induced NF-κB activation (gene expression induction, luciferase)” value in the data set on NF-κB is “not suppressed”.

The record behind these values is patent US20040048791A1, “Method for treating neoplastic cells using cycloprodigiosin or salt thereof” (priority 2002, published 2004).
